Publication PMC11062922 (Nature Chemical Biology, 2023)

What was measured:
FLT3 = test: Kinobeads two-dose competition binding: FLT3; design: species or system human; details: for CATDS: target FLT3
PIP4K2C = target: T1, PIP4K2C (Homo sapiens, UniProt Q8TBX8); test: Kinobeads competition binding: PIP4K2C; details: target PIP4K2C
T1 construct: a mixture of lysates from five cancer cell lines; endogenous in cells
T1 sequence (Q8TBX8 1-421): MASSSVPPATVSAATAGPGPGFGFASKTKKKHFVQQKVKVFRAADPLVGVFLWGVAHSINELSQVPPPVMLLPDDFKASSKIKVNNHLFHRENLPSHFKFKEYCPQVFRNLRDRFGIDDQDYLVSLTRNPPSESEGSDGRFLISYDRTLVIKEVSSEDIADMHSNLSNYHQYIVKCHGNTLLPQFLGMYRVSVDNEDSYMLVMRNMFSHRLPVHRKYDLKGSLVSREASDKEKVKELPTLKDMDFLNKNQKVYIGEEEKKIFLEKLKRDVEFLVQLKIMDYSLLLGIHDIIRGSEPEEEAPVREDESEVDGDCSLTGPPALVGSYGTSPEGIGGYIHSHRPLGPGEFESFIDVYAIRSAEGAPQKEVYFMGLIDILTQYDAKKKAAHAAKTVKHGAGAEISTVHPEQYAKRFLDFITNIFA
Description: Supplement 41589_2023_1459_MOESM4_ESM.xlsx, sheet "CATDS matrix" | column: PIP4K2C

HCK = target: T2, HCK (Homo sapiens, UniProt P08631); test: Kinobeads competition binding: HCK; details: target HCK
T2 construct: endogenous in cells
T2 sequence (P08631 whole entry): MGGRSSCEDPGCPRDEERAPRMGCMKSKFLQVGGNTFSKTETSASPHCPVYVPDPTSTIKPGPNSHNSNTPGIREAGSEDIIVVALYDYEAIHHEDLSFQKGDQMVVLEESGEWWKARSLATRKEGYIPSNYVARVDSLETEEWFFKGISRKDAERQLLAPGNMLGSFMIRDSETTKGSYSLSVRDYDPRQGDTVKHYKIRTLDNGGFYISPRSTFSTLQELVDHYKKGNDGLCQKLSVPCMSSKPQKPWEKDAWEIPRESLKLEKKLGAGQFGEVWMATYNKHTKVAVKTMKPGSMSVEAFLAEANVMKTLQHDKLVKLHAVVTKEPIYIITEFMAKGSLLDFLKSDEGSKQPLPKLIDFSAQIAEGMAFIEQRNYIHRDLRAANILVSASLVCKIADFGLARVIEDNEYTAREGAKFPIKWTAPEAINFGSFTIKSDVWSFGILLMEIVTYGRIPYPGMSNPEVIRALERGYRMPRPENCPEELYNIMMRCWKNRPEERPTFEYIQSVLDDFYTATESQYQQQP
Description: Supplement 41589_2023_1459_MOESM4_ESM.xlsx, sheet "CATDS matrix" | column: HCK

DDR1 = test: Kinobeads competition binding: DDR1; design: species or system human; details: target DDR1
NEK2 = test: Kinobeads competition binding: NEK2; design: species or system human; details: target NEK2
FGFR1 = target: T3, FGFR1 (Homo sapiens, UniProt P11362); test: Kinobeads competition binding: FGFR1; details: target FGFR1
T3 construct: endogenous in cells
T3 sequence (P11362 22-822): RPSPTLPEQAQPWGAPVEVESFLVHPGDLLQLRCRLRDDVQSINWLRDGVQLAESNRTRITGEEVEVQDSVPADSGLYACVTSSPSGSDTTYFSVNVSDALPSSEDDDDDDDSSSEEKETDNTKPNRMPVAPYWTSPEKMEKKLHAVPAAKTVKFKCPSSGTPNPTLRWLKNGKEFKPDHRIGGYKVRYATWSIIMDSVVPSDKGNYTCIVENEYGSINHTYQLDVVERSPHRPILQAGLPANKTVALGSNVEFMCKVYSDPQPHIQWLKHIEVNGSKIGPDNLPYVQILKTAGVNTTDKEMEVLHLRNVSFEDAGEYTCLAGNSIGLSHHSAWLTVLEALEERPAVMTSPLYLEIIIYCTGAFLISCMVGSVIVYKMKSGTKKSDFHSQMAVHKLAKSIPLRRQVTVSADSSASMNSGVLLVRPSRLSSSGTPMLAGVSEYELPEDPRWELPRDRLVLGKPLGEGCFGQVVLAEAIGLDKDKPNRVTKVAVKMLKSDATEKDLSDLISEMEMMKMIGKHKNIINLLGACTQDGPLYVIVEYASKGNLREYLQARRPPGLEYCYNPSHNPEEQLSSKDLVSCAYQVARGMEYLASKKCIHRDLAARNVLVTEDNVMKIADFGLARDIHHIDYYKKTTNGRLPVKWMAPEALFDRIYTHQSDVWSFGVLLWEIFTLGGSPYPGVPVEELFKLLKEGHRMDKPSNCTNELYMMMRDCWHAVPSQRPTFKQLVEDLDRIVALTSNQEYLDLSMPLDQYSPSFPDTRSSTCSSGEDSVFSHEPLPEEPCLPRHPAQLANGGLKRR
Description: Supplement 41589_2023_1459_MOESM4_ESM.xlsx, sheet "CATDS matrix" | column: FGFR1

AKT3 = target: T4, AKT3 (Homo sapiens, UniProt Q9Y243); test: Kinobeads competition binding: AKT3; details: target AKT3
T4 construct: endogenous in cells
T4 sequence (Q9Y243 whole entry): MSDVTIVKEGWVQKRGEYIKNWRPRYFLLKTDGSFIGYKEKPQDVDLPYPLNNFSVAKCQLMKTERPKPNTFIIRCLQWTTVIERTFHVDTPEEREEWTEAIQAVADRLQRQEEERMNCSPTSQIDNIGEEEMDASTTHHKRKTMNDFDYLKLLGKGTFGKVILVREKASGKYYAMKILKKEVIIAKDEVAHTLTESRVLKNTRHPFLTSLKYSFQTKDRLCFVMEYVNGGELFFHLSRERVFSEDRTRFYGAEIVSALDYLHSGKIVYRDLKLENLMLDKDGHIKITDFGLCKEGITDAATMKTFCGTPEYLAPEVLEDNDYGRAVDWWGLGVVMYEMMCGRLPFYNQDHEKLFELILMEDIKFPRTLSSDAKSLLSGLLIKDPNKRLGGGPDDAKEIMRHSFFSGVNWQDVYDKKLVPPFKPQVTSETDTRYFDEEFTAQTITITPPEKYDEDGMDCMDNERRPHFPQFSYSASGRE

MAPK10 = test: Kinobeads competition binding: MAPK10; design: species or system human; details: target MAPK10
ABL2 = target: T5, ABL2 (Homo sapiens, UniProt P42684); test: Kinobeads competition binding: ABL2; details: target ABL2
T5 construct: endogenous in cells
T5 sequence (P42684 whole entry): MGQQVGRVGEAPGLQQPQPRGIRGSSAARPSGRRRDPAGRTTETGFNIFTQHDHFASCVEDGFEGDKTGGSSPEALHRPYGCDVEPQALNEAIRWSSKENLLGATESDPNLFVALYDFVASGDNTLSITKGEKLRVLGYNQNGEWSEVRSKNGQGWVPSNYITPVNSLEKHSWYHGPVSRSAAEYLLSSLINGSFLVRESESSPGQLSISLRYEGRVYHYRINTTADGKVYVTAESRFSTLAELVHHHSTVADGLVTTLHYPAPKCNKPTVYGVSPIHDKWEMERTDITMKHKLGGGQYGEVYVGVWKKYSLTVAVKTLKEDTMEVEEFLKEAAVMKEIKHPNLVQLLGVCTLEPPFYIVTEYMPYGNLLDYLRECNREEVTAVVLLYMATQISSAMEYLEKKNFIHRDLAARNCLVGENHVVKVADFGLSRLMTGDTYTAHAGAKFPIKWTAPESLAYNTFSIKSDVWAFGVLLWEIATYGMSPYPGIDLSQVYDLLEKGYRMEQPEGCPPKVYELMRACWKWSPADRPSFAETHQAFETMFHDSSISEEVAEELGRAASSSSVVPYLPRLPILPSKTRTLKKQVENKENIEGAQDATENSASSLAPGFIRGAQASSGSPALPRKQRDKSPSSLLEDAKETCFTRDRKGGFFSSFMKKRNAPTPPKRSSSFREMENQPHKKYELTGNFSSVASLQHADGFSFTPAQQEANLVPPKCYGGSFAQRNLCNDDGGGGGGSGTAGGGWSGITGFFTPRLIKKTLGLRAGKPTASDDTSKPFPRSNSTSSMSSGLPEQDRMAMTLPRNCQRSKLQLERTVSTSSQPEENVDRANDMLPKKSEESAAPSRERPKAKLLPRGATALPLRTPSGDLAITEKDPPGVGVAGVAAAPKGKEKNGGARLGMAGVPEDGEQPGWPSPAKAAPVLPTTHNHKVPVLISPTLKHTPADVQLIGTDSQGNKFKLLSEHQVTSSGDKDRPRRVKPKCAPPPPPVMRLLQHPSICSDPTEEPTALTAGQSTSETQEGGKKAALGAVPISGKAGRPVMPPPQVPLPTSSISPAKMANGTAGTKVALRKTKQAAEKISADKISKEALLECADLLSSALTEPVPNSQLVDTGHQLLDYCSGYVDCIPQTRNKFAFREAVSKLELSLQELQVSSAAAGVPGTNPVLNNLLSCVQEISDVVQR

ERN1 = target: T6, ERN1 (Homo sapiens, UniProt O75460); test: Kinobeads competition binding: ERN1; details: target ERN1
T6 construct: endogenous in cells
Description: Supplement 41589_2023_1459_MOESM4_ESM.xlsx, sheet "CATDS matrix" | column: ERN1

IRAK3 = test: Kinobeads competition binding: IRAK3; design: species or system human; details: target IRAK3
FLT4 = target: T7, FLT4 (Homo sapiens, UniProt P35916); test: Kinobeads competition binding: FLT4; details: target FLT4;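 also: share of total target engagement due to this protein at one drug concentration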
T7 construct: endogenous in cells
T7 sequence (P35916 25-1363): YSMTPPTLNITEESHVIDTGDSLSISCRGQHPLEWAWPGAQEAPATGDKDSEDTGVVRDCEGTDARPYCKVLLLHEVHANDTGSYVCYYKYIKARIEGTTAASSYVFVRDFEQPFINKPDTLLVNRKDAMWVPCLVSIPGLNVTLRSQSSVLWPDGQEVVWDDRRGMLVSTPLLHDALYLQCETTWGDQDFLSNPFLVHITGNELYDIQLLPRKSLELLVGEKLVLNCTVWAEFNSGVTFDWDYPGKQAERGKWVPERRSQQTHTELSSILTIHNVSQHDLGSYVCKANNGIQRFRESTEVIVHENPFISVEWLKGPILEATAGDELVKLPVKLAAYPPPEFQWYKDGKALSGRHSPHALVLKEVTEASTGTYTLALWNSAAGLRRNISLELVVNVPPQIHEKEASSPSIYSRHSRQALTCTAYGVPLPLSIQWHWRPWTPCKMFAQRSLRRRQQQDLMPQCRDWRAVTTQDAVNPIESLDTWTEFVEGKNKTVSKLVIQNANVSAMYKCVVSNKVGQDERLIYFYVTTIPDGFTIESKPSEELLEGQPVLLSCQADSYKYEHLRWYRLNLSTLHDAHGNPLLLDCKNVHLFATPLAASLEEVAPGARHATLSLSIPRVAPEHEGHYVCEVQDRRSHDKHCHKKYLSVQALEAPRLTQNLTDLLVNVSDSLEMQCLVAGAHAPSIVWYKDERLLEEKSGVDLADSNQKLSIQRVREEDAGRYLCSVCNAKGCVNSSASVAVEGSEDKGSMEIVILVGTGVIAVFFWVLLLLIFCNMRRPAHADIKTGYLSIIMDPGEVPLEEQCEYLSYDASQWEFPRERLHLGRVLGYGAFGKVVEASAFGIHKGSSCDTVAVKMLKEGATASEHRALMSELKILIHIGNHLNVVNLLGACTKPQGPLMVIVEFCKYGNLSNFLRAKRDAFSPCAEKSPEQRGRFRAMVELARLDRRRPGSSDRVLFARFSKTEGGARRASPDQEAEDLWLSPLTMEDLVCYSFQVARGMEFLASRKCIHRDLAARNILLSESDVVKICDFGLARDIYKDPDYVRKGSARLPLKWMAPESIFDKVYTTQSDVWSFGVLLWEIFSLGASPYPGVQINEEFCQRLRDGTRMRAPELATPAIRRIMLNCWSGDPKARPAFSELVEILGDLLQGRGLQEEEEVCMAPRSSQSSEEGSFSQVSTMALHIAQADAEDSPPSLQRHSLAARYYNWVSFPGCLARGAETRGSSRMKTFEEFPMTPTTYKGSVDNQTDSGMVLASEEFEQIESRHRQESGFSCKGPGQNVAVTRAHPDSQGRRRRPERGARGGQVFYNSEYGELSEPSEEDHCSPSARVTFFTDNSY

IRAK1 = test: Kinobeads competition binding: IRAK1; design: species or system human; details: target IRAK1
CDK16 = test: Kinobeads competition binding: CDK16; design: species or system human; details: target CDK16
FN3KRP = test: Kinobeads competition binding: FN3KRP; design: species or system human; details: target FN3KRP;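 also: share of total target engagement due to this protein at one drug concentration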
ADK = test: Kinobeads competition binding: ADK; design: species or system human; details: target ADK;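 also: selectivity score: engagement of this protein divided by summed engagement of all targets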

Structure (SMILES) | Kinobeads Data (FLT3; FLT3) | CATDS (PIP4K2C) | CATDS (HCK) | CATDS (DDR1) | CATDS (NEK2) | CATDS (FGFR1) | CATDS (AKT3) | CATDS (MAPK10) | CATDS (ABL2) | CATDS (FLT3) | CATDS (ERN1) | CATDS (IRAK3) | CATDS (FLT4) | CATDS (IRAK1) | CATDS (CDK16) | CATDS (FN3KRP) | CATDS (ADK)
COc1cc(Nc2ncc3c(C)nc(-c4cc5ccccc5[nH]4)n3n2)cc(OC)c1OC [GW869516X] | no target |  |  |  |  |  |  |  |  |  |  |  |  |  |  |  | 
CCN1CCN(Cc2ccc(Nc3ncc(F)c(-c4cc(F)c5nc(C)n(C(C)C)c5c4)n3)nc2)CC1 [Abemaciclib] |  | 0 | 0 | 0 | 0 | 0 | 0 | 0 | 0 | 0 | 0 | 0 | 0 | 0.02986 | 0.02651 | 0 | 0
CN(C)C/C=C/C(=O)Nc1cc2c(Nc3ccc(F)c(Cl)c3)ncnc2cc1O[C@H]1CCOC1 [Afatinib] |  | 0 | 0 |  |  | 0 |  |  |  |  | 0 |  |  |  |  | 0 | 0
CCc1cc2c(cc1N1CCC(N3CCOCC3)CC1)C(C)(C)c1[nH]c3cc(C#N)ccc3c1C2=O [Alectinib] |  | 0 | 0 | 0 | 0 | 0 | 0 | 0 | 0 | 0 | 0 | 0 | 0 | 0 | 0 | 0 | 0
Nc1ncnc2[nH]c(-c3ccccc3)nc12 [AH5015_KCGS] |  | 0 | 0 | 0 | 0 | 0 | 0 | 0 | 0 | 0 | 0 | 0 | 0 | 0 | 0 | 0 | 0
N#CC1(c2ccc(NC(=O)c3cccnc3NCc3ccncc3)cc2)CCCC1 [Apatinib] |  | 0 | 0 | 0 | 0 | 0 | 0 | 0 | 0 | 0 | 0 | 0 | 0 | 0 | 0 | 0 | 0
